Laboratory results published in US8114886B2, “Pyridylmethylsulfone derivative” (Daiichi Sankyo Company, Limited, priority 2005, dated 2012).

Key:
[1] = system: β-amyloid protein (Aβ) secreted by E35 cells (H4 cells with APP751 gene); assay: Screening system using E35 cells for inhibition of production/secretion of β-amyloid protein (sandwich ELISA of Aβ in culture medium); assay type: cell-based, human; conditions: Homo sapiens, 24 hours with compound, Aβ in culture supernatant by ELISA, read-out: Inhibitory Activity for Production of A(EC50)
Method: The activity of the compound inhibiting β-amyloid protein production was measured on E35 cells prepared by introducing APP751 gene, a gene of a human wild type β-amyloid protein precursor protein, to human glioma cells (H4 cells), by quantifying the amount of β-amyloid protein (Aβ) secreted to the culture medium by means of a sandwich type Enzyme-Linked Immunosorbent Assay (ELISA) method.
That is, E35 cells inoculated on a 96-well plate were cultured in an incubator at 37° C. which was maintained at equilibrium with 5% carbon dioxide, using Dulbecco's Modified Eagle's Medium containing inactivated 10% fetal bovine serum as the culture medium. After 24 hours from the inoculation, a test compound dissolved in a DMSO solution was added. The DMSO solution of the test compound was prepared at a concentration of 2000 times of the final concentration, such that the DMSO concentration in the culture medium would be 0.05%. After culturing for another 24 hours, the culture supernatant was recovered, and this was added to a 96-well plate for ELISA onto which a monoclonal antibody against Aβ, 25-1, was solid-phased. The plate was incubated at 4° C. for 16 to 20 hours. The plate was washed with phosphate buffer solution (pH 7.4), and then a biotinylated monoclonal antibody against Aβ, MA32-40, was added thereto. The plate was left to stand at 4° C. for 2 hours. The plate was washed again with phosphate buffer solution, and then alkaline phosphatase-conjugated streptavidin was added to conjugate streptavidin to biotin. Subsequently, the plate was washed with phosphate buffer solution. To this, Blue Phos (Kirkegaard & Perry Laboratories, Inc.) was added. After incubating the plate for an appropriate time, the reaction was terminated with an acid, and the absorbance for each well was measured. The amount of Aβ contained in the culture supernatant was determined from a calibration curve which was produced separately, and the amount was compared with that of control cells to which the compound was not added. Thus, the concentration at which 50% of the Aβ production is inhibited (EC50 value) was calculated. In addition, the 25-1 antibody and MA32-40 antibody used in ELISA were mouse monoclonal antibodies derived from the hybridoma cell clone lines, which were each produced and selected according to a standard method using Aβ25-35 and Aβ1-8 as antigens, respectively, and which specifically recognize their respective antigens. […]
The scores indicate ++++ for the case where EC50 was 5 nM or less; +++ for the case where EC50 was 5 to 50 nM; ++ for the case where EC50 was 50 to 500 nM; and + for the case where EC50 was 500 nM to 5 μM.

| Compound | EC50 [1] [nM] | melting point |
| --- | --- | --- |
| CON(C)C(=O)c1cc(C)c(C(c2cc(F)ccc2F)S(=O)(=O)c2ccc(F)cc2)cn1 (centres unmarked) [Example 79, 5-[(2,5-Difluorophenyl) [(4-fluorophenyl)sulfonyl]methyl]-N-methoxy-N,4-dimethylpyridine-2-carboxamide] | 50 to 500 | 156 to 158 °C |
| Cc1cc(C(N)=O)ncc1C(c1c(F)ccc(F)c1F)S(=O)(=O)c1ccc(OC(F)(F)F)cc1 (centres unmarked) [Example 123, 4-Methyl-5-[[[4-(trifluoromethoxy)phenyl]sulfonyl](2,3,6-trifluorophenyl)methyl]pyridine-2-carboxamide] | ≤ 5 | 219 to 220 °C |
| CCN(C)C(=O)c1cc(C)c(C(c2cc(F)ccc2F)S(=O)(=O)c2ccc(F)cc2)cn1 (centres unmarked) [Example 18, 5-[(2,5-Difluorophenyl)[(4-fluorophenyl)sulfonyl]methyl]-N-ethyl-N,4-dimethylpyridine-2-carboxamide] | 50 to 500 | 165 to 167 °C |
| CNC(=O)c1cc(C)c(C(c2cc(F)ccc2F)S(=O)(=O)c2ccc(Cl)cc2)cn1 (centres unmarked) [Example 4, 5-[[(4-Chlorophenyl)sulfonyl](2,5-difluorophenyl)methyl]-N,4-dimethylpyridine-2-carboxamide] | ≤ 5 | 200 to 201 °C |
| Cc1cc(C(=O)NCO)ncc1C(c1c(F)ccc(F)c1F)S(=O)(=O)c1ccc(OC(F)(F)F)cc1 (centres unmarked) [Example 124, N-(hydroxymethyl)-4-methyl-5-[[[4-(trifluoromethoxy)phenyl]sulfonyl](2,3,6-trifluorophenyl)methyl]pyridine-2-carboxamide] | 5 to 50 | 140 to 141 °C |
| Cc1cc(C(=O)N2CCC(O)CC2)ncc1C(c1cc(F)ccc1F)S(=O)(=O)c1ccc(F)cc1 (centres unmarked) [Example 76, 1-[[5-[(2,5-Difluorophenyl)[(4-fluorophenyl)sulfonyl]methyl]-4-methylpyridin-2-yl]carbonyl]piperidin-4-ol] | 500 to 5000 | 171 to 173 °C |
| Cc1cc(C(=O)N(C)C)ncc1C(c1cc(F)ccc1F)S(=O)(=O)c1ccc(F)cc1 (centres unmarked) [Example 14, 5-[(2,5-Difluorophenyl)[(4-fluorophenyl)sulfonyl]methyl]-N,N,4-trimethylpyridine-2-carboxamide] | 50 to 500 | 176 to 177 °C |
| Cc1cc(C(=O)NCO)ncc1C(c1c(F)ccc(F)c1F)S(=O)(=O)c1ccc(F)c(F)c1 (centres unmarked) [Example 122, 5-[[(3,4-Difluorophenyl)sulfonyl](2,3,6-trifluorophenyl)methyl]-N-(hydroxymethyl)-4-methylpyridine-2-carboxamide] |  | 119 to 120 °C |
| Cc1cc(C(=O)O)ncc1C(c1cc(F)ccc1F)S(=O)(=O)c1ccc(Cl)cc1 (centres unmarked) [Example 3, 5-[[(4-Chlorophenyl)sulfonyl](2,5-difluorophenyl)methyl]-4-methylpyridine-2-carboxylic acid] |  | 208 to 209 °C |
| CC(=O)NC(=O)c1cc(C)c(C(c2cc(F)ccc2F)S(=O)(=O)c2ccc(F)cc2)cn1 (centres unmarked) [Example 107, N-acetyl-5-[(2,5-difluorophenyl)[(4-fluorophenyl)sulfonyl]methyl]-4-methylpyridine-2-carboxamide] |  | 182 to 183 °C |
| Cc1cc(C(=O)NCO)ncc1C(c1c(F)ccc(F)c1F)S(=O)(=O)c1ccc2ccoc2c1 (centres unmarked) [Example 127, 5-[(1-Benzofuran-6-ylsulfonyl)(2,3,6-trifluorophenyl)methyl]-N-(hydroxymethyl)-4-methylpyridine-2-carboxamide] |  | 185 to 186 °C (dec.) |
| COc1ccc(S(=O)(=O)C(c2cnc(C(=O)O)cc2C)c2cc(F)ccc2F)cc1 (centres unmarked) [Example 42, 5-[(2,5-Difluorophenyl)[(4-methoxyphenyl)sulfonyl]methyl]-4-methylpyridine-2-carboxylic acid] |  | 194 to 195 °C |
| Cc1cc(C(=O)NCOCc2cccnc2)ncc1C(c1cc(F)ccc1F)S(=O)(=O)c1ccc(F)cc1 (centres unmarked) [Example 113, 5-[(2,5-Difluorophenyl) [(4-fluorophenyl)sulfonyl]methyl]-4-methyl-N-[(pyridin-3-ylmethoxy)methyl]pyridine-2-carboxamide] |  | 121 to 123 °C |
| Cc1cc(C(=O)N(C)CO)ncc1C(c1cc(F)ccc1F)S(=O)(=O)c1ccc(F)cc1 (centres unmarked) [Example 133, 5-[(2,5-Difluorophenyl)((4-fluorophenyl)sulfonyl)methyl]-N-(hydroxymethyl)-N,4-dimethylpyridine-2-carboxamide] |  | 184 to 186 °C |

Next, values leading:

| EC50 [1] [nM] | melting point | Compound |
| --- | --- | --- |
| ≤ 5 | 191 to 193 °C | CCNC(=O)c1cc(C)c(C(c2cc(F)ccc2F)S(=O)(=O)c2ccc(F)cc2)cn1 (centres unmarked) [Example 16, 5-[(2,5-Difluorophenyl)[(4-fluorophenyl)sulfonyl]methyl]-N-ethyl-4-methylpyridine-2-carboxamide] |
| ≤ 5 | 164 to 165 °C | Cc1cc(C(=O)NCCO)ncc1C(c1c(F)ccc(F)c1F)S(=O)(=O)c1ccc(F)cc1 (centres unmarked) [Example 94, 5-[[(4-Fluorophenyl)sulfonyl](2,3,6-trifluorophenyl)methyl]-N-(2-hydroxyethyl)-4-methylpyridine-2-carboxamide] |
| 5 to 50 | 134 to 135 °C | COc1ccc(S(=O)(=O)C(c2cnc(C(=O)NCCO)cc2C)c2cc(F)ccc2F)cc1 (centres unmarked) [Example 43, 5-[(2,5-Difluorophenyl)[(4-methoxyphenyl)sulfonyl]methyl]-N-(2-hydroxyethyl)-4-methylpyridine-2-carboxamide] |
| 5 to 50 | 137 to 138 °C | COc1ccc(S(=O)(=O)C(c2cnc(C(=O)NCCO)cc2C)c2cc(F)ccc2F)cc1F (centres unmarked) [Example 47, 5-[(2,5-Difluorophenyl)[(3-fluoro-4-methoxyphenyl)sulfonyl]methyl]-N-(2-hydroxyethyl)-4-methylpyridine-2-carboxamide] |
|  | 223 to 226 °C | Cc1cc(C(=O)NCCC(=O)O)ncc1C(c1cc(F)ccc1F)S(=O)(=O)c1ccc(F)cc1 (stereo not drawn) [Example 81, N-[[5-[(2,5-difluorophenyl)[(4-fluorophenyl)sulfonyl]methyl]-4-methylpyridin-2-yl]carbonyl]-β-alanine] |
|  | 190 to 193 °C | Cc1cc(C(=O)NCS)ncc1C(c1cc(F)ccc1F)S(=O)(=O)c1ccc(F)cc1 (centres unmarked) [Example 132, 5-[(2,5-Difluorophenyl)[(4-fluorophenyl)sulfonyl]methyl]-N-(mercaptomethyl)-4-methylpyridine-2-carboxamide] |
| 500 to 5000 | 123 to 125 °C | Cc1cc(C(=O)N(C)CCO)ncc1C(c1cc(F)ccc1F)S(=O)(=O)c1ccc(F)cc1 (centres unmarked) [Example 19, 5-[(2,5-Difluorophenyl)[(4-fluorophenyl)sulfonyl]methyl]-N-(2-hydroxyethyl)-N,4-dimethylpyridine-2-carboxamide] |
|  | 175 to 177 °C | Cc1cc(C(=O)NCOCCO)ncc1C(c1cc(F)ccc1F)S(=O)(=O)c1ccc(F)cc1 (centres unmarked) [Example 112, 5-[(2,5-Difluorophenyl)[(4-fluorophenyl)sulfonyl]methyl]-N-[(2-hydroxyethoxy)methyl]-4-methylpyridine-2-carboxamide] |
| ≤ 5 | 201 to 202 °C | CNC(=O)c1cc(C)c(C(c2cc(F)ccc2F)S(=O)(=O)c2ccc(F)cc2)cn1 (centres unmarked) [Example 13, 5-[(2,5-difluorophenyl)[(4-fluorophenyl)sulfonyl]methyl]-N, 4-dimethylpyridine-2-carboxamide] |
| 5 to 50 | 231 to 234 °C | CONC(=O)c1cc(C)c(C(c2cc(F)ccc2F)S(=O)(=O)c2ccc(F)cc2)cn1 (centres unmarked) [Example 78, 5-[(2,5-Difluorophenyl)[(4-fluorophenyl)sulfonyl]methyl]-N-methoxy-4-methylpyridine-2-carboxamide] |
| ≤ 5 | 167 to 169 °C | COC(=O)NCCNC(=O)c1cc(C)c(C(c2cc(F)ccc2F)S(=O)(=O)c2ccc(F)cc2)cn1 (centres unmarked) [Example 84, Methyl[2-[[[5-[(2,5-difluorophenyl)[(4-fluorophenyl)sulfonyl]methyl]-4-methylpyridin-2-yl]carbonyl]amino]ethyl]carbamate] |
|  | 84 °C | Cc1cc(C(=O)NCOC(=O)CO)ncc1C(c1cc(F)ccc1F)S(=O)(=O)c1ccc(F)cc1 (centres unmarked) [Example 109, [[[5-[(2,5-Difluorophenyl)[(4-fluorophenyl)sulfonyl]methyl]-4-methylpyridin-2-yl]carbonyl]amino]methyl hydroxyacetate] |
